Reference: PMC8859984 (Journal of medicinal chemistry, 2020)
Entries after “also recorded” stand apart in the source; their conditions may differ. Blank lines part the entries; values can stand above or below the compound they belong to.

Columns and labels:
KARPAS422 cell tumor = settings: 300 mg/kg twice daily via oral gavage; cited from earlier work
EED (1–441)-His protein = EED (1–441)-His protein (Homo sapiens, UniProt O75530); experiment: EED-H3K27me3 peptide competition binding assay by AlphaScreen; settings: vs compound 21
Sequence of EED (1–441)-His protein (O75530 whole entry): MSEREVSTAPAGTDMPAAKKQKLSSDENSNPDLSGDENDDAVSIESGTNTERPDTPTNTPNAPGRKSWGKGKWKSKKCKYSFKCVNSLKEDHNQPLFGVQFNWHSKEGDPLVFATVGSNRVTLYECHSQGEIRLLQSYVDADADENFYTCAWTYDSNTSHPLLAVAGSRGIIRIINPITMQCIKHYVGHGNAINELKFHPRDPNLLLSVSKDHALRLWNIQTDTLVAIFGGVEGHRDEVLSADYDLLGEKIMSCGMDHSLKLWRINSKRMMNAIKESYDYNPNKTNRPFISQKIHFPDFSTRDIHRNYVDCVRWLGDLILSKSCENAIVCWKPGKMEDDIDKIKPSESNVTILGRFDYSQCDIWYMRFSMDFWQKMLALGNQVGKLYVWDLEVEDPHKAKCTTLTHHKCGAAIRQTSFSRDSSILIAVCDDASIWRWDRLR

H3K27me3 = experiment: Pharmacodynamic analysis of H3K27me3 in KARPAS422 xenograft tumor tissue; format: in vivo, SCID mice; settings: single 100 mg/kg oral administration, 24 h, Western blotting
[1] = system: KARPAS422 xenograft model; experiment: Antitumor activity in the KARPAS422 xenograft model; format: in vivo, SCID mice; settings: for tumor regression in KARPAS422 xenograft model: 50 and 100 mg/kg via oral gavage, daily for 28 days
[2] = Animal body weights during the KARPAS422 xenograft efficacy experiment; format: in vivo, SCID mice; settings: 50 and 100 mg/kg oral gavage daily for 28 days
tumor growth = settings: 300 mg/kg twice a week subcutaneous injections for 5 weeks; cited from earlier work

SMILES: CCOC(=O)c1ncn2c(NCc3cc(OC)ccc3F)ncc(-c3ccccc3)c12 [Compound 13, Ethyl 5-((2-Fluoro-5-methoxybenzyl)amino)-8-phenylimidazo-[1,5-c]pyrimidine-1-carboxylate]
- times less potent than 12 in cell growth inhibition in KARPAS422 (KARPAS422 cells; vs compound 12): 8 times

SMILES: CCOC(=O)c1ncn2c(NCc3c(F)cccc3OC)ncc(-c3ccccc3)c12 [Compound 12, Ethyl 5-((2-Fluoro-6-methoxybenzyl)amino)-8-phenylimidazo-[1,5-c]pyrimidine-1-carboxylate]
- times more potent than 11 in cell growth inhibition in KARPAS422 (KARPAS422 cells; vs compound 11): 6 times

SMILES: CCOC(=O)c1ncn2c(NCc3cccc4c3CCO4)ncc(-c3ccccc3)c12 [Compound 17, Ethyl 5-(((2,3-Dihydrobenzofuran-4-yl)methyl)amino)-8-phenylimidazo[1,5-c]pyrimidine-1-carboxylate]
- times more potent than 16 in inhibition of cell growth in KARPAS422 (KARPAS422 cells; vs compound 16): 30 times

SMILES: CCOC(=O)c1ncn2c(NCc3ccco3)ncc(-c3ccccc3)c12 [Compound 8, Ethyl 5-((Furan-2-ylmethyl)amino)-8-phenylimidazo[1,5-c]-pyrimidine-1-carboxylate]
- times more potent than 7 in inhibition of cell growth in KARPAS422 (KARPAS422 cells; vs compound 7): 2 times

SMILES: CS(=O)(=O)c1ccc(-c2cnc(NCc3ccco3)n3cnnc23)cc1 [EED226]
- KARPAS422 cell tumor regression (KARPAS422 cell tumor): complete KARPAS422 cell tumor regression

SMILES: CS(=O)(=O)c1ncn2c(NCc3c(F)ccc4c3CCO4)ncc(-c3ccc(C4CC4)nc3)c12 [Compound 28, 8-(6-Cyclopropylpyridin-3-yl)-N-((5-fluoro-2,3-dihydrobenzofuran-4-yl)methyl)-1-(methylsulfonyl)imidazo[1,5-c]pyrimidin-5-amine]
- times more potent than 21 in binding to EED (EED (1–441)-His protein): 3–4 times
- level of H3K27me3 in KARPAS422 tumor tissue (H3K27me3): effectively reduces the level of H3K27me3
- tumor regression in KARPAS422 xenograft model ([1]; listed as EEDi-5285): complete and durable tumor regression; also recorded: complete and long-lasting tumor regression
- regrowth of tumors after end of treatment ([1]; after treatment had been stopped for 72 days, 50 and 100 mg/kg oral daily for 28 days): no regrowth of tumors was observed
- animal weight loss during the entire experiment [2]: minimal weight loss
- times more potent than 21 in inhibition of KARPAS422 cell growth (KARPAS422 cells; vs compound 21): 3–4 times

SMILES: CS(=O)(=O)c1ncn2c(NCc3c(F)ccc4c3CCO4)ncc(-c3ccc(F)cc3)c12 [Compound 24, N-((5-Fluoro-2,3-dihydrobenzofuran-4-yl)methyl)-8-(4-fluorophenyl)-1(methylsulfonyl)imidazo[1,5-c]pyrimidin-5-amine]
- times less potent than 21 in inhibition of KARPAS422 cell growth (KARPAS422 cells; vs compound 21): 2–3 times

- times more potent than 21 in binding to EED (EED (1–441)-His protein): 5 times
SMILES: CS(=O)(=O)c1ncn2c(NCc3c(F)ccc4c3CCO4)ncc(-c3ccc(C(F)F)nc3)c12 [Compound 29, 8-(6-(Difluoromethyl)pyridin-3-yl)-N-((5-fluoro-2,3-dihydrobenzofuran-4-yl)methyl)-1-(methylsulfonyl)imidazo[1,5-c]pyrimidin-5-amine]

SMILES: CCOC(=O)c1ncn2c(NCc3ccccc3)ncc(-c3ccccc3)c12 [Compound 10, Ethyl 5-(Benzylamino)-8-phenylimidazo[1,5-c]pyrimidine-1-carboxylate]
- times less potent than 8 in cellular assay (KARPAS422 cells; vs compound 8, KARPAS422): 2–3 times

SMILES: CN(C)[C@H]1CN(C2CCc3cccc(F)c32)C[C@@H]1c1ccc(N2CCN(S(C)(=O)=O)CC2)cc1 (stereo partly shown) [Compound A-395]
- inhibition of tumor growth (tumor growth): 84%

- times less potent than 21 in binding to EED (EED (1–441)-His protein): 17 times
SMILES: CS(=O)(=O)c1ncn2c(NCc3c(F)ccc4c3CCO4)ncc(C3CCOCC3)c12 [Compound 35, N-((5-Fluoro-2,3-dihydrobenzofuran-4-yl)methyl)-1-(methylsulfonyl)-8-(tetrahydro-2H-pyran-4-yl)imidazo[1,5-c]pyrimidin-5-amine]
- times less potent than 21 in inhibition of KARPAS422 cell growth (KARPAS422 cells; vs compound 21): 24 times

SMILES: Cc1ccc(-c2cnc(NCc3c(F)ccc4c3CCO4)n3cnc(S(C)(=O)=O)c23)c(C)n1 [Compound 32, 8-(2,6-Dimethylpyridin-3-yl)-N-((5-fluoro-2,3-dihydrobenzofuran-4-yl)methyl)-1-(methylsulfonyl)imidazo[1,5-c]pyrimidin-5-amine]
- level of H3K27me3 in KARPAS422 tumor tissue (H3K27me3): effectively reduces the level of H3K27me3
- tumor regression in KARPAS422 xenograft model ([1]; listed as EEDi-1056): complete tumor regression
